Experiments:
[1] = test system: rats with inflammatory soup-sensitized trigeminal ganglia; test: In vivo migraine headache model: von Frey periorbital threshold after GTN challenge; design: species or system Sprague-Dawley rats
Experimental: Surgeries were performed as previously described in Oshinsky, M. L. & Gomonchareonsiri, S., Episodic dural stimulation in awake rats: a model for recurrent headache, 47 HEADACHE 1026-1036 (2007). Adult male Sprague-Dawley rats were habituated towards handling for 1-2 weeks before undergoing dural cannulation surgery under isoflurane anesthesia. Attention was given not to disturb the dura. A custom flange guide cannula (22GA, Plastics One) was inserted. The cannula was fixed to the bone with small screws and dental cement.
After 1-2 weeks of recovery from surgery, animals received supradural infusions of an inflammatory soup comprising 2 mM histamine, bradykinin, serotonin, 0.2 mM prostaglandin E2 under brief isoflurane anesthesia (1.5-3%) for 5 consecutive days (1/day) (i.e., the 5-day sensitization period).
The design was within-subjects with the same animals receiving multiple treatments in a crossover fashion with at least one week washout between each treatment. Evoked sensory testing for mechanical allodynia was done by von Frey periorbital threshold testing. Sensory testing occurred during the day using von Frey filaments with reproducible calibrated buckling forces varying from 0.4-10 g and utilizing the up-and-down method. See Dixon, W. J., The Up-and-Down Method for Small Samples, 60 J. AM. STAT. ASSOC., 967-978 (1965); Chaplan, S. R., Bach, F. W., Pogrel, J. W., Chung, J. M. & Yaksh, T. L., Quantitative assessment of tactile allodynia in the rat paw, 53 J. NEUROSCI. METHODS 55-63 (1994) (hereinafter “Chaplan 1994”). Based on the response pattern and the force of the final filament, the periorbital threshold (g) was calculated according to the prior art method set forth, e.g., in Chaplan 1994 and Bonin, R. P., Bories, C. & De Koninck, Y., A simplified up-down method (SUDO) for measuring mechanical nociception in rodents using von Frey filaments, 10 MOL. PAIN 26 (2014). A blinded investigator tested periorbital sensitivity before drug administration, and 45 min and 1.5 h after drug administration. Studies were conducted with n=13-22.

[2] = test system: luteinizing hormone (LH); test: Luteinizing hormone (LH) inhibition studies, serum LH by ELISA; format: in vivo, castrated male Sprague-Dawley rats; details: for reduction in LH levels: 100 mg/kg
Experimental: Studies measuring LH were performed on castrated male Sprague-Dawley rats. Briefly, animals were castrated through a midline scrotal incision using Zoletil® 50 as an anesthetic. Surgeries were performed at least 15 days before compound testing.
Serum was collected at baseline, then every 15 minutes starting from 30 minutes after PO […] dosing with vehicle, fezolinetant (30 mg/kg), or SB 235375 (30 and 100 mg/kg). Blood was collected from the jugular vein, transferred into 1.5-mL centrifuge tubes, and centrifuged at 8000 g for 15 minutes to separate the serum. Serum LH levels were determined using a rat luteinizing hormone ELISA kit (Colorimetric, Novus). The assays were performed following the manufacturer's protocol. Group sizes were from n=10 for the vehicle and SB 235375 groups and n=4 for fezolinetant.

CC[C@H](NC(=O)c1c(OCC(=O)O)c(-c2ccccc2)nc2ccccc12)c1ccccc1 [SB 235375]
pain (periorbital) threshold ([1]; GTN + 30 and 100 mg/kg PO, 45, 90 minutes, vs GTN and vehicle): higher pain thresholds | mean LH value ([2]; 30 mg/kg PO, 0 min (baseline)): 31.6 ng/mL | mean LH value ([2]; 30 mg/kg PO, 30 min): 33.4 ng/mL | mean LH value ([2]; 30 mg/kg PO, 90 min): 35.8 ng/mL | mean LH value ([2]; 30 mg/kg PO, 150 min): 30.4 ng/mL | increase in LH levels ([2]; 30 mg/kg, 30 minutes): ~+4% | increase in LH levels ([2]; 30 mg/kg, 90 minutes): ~+13% | reduction in LH levels compared to vehicle ([2]; 30 mg/kg, 150 minutes): roughly 4% | mean LH value ([2]; 100 mg/kg PO, 0 min (baseline)): 34.7 ng/mL | mean LH value ([2]; 100 mg/kg PO, 30 min): 25.7 ng/mL | mean LH value ([2]; 100 mg/kg PO, 90 min): 29.7 ng/mL | mean LH value ([2]; 100 mg/kg PO, 150 min): 31.1 ng/mL | reduction in LH levels ([2]; 30 minutes): roughly 26% | reduction in LH levels ([2]; 90 minutes): ~14% | reduction in LH levels ([2]; 150 minutes): ~10% | LH levels compared to the vehicle-treated group ([2]; 30 and 100 mg/kg): did not exhibit a significant difference

Cc1nsc(-c2nnc3n2CCN(C(=O)c2ccc(F)cc2)[C@@H]3C)n1 [fezolinetant]
withdrawal (periorbital) threshold ([1]; GTN + 30 mg/kg PO, 90 min timepoint, vs saline+vehicle or GTN+vehicle): significantly higher | withdrawal (periorbital) threshold ([1]; GTN + 100 mg/kg PO, both timepoints (45 min, 1.5 h), vs each control group): significantly higher | mean LH value ([2]; 30 mg/kg PO, 0 min (baseline)): 37.3 ng/mL | mean LH value ([2]; 30 mg/kg PO, 30 min): 15.2 ng/mL | mean LH value ([2]; 30 mg/kg PO, 90 min): 6.1 ng/mL | mean LH value ([2]; 30 mg/kg PO, 150 min): 5.5 ng/mL | reduction in LH levels compared to vehicle ([2]; 30 mg/kg, 30 minutes): approximately 60% | reduction in LH levels compared to vehicle ([2]; 30 mg/kg, 90 minutes): roughly 85% | reduction in LH levels compared to vehicle ([2]; 30 mg/kg, 150 minutes): roughly 85% | LH serum concentrations ([2]; 30 mg/kg, all measured time points (30, 90, and 150 min)): significantly reduced

— patent publication US20250270330A1, “TREATMENT OF HEADACHE DISORDERS WITH NK3 MODULATORS” (Kallyope, Inc., priority 2022, published 2025)
